According to PMC8540642, “Antineoplastic Activity of Rhus trilobata Nutt. (Anacardiaceae) against Ovarian Cancer and Identification of Active Metabolites in This Pathology” (Plants, 2021):
≈ marks a conversion by molar mass, not a printed value. Where “and” joins values, the source holds several entries; their conditions need not be identical. Identical values can stand only once. Like-named read-outs stand apart in the source and are kept apart here. Values belong to the compound of their own block, whether it stands above or below them.

Key:
[1] = system: CACO-2 cells; assay: MTT cell viability, dose-response curves 24 h; assay type: cell-based; conditions: Homo sapiens, read-out: IC50 (half-maximal inhibitory concentration), CACO-2
Protocol: (§1) Cultures (2 × 10^4 cells/well) were seeded with 200 μL of supplemented medium (Sigma®) in 96-well plates (Corning®, Corning, NY, USA) and incubated for 24 h. Cell treatments were 5-200 μg/mL of samples/controls for 24 h. At the end of the treatments, we added MTT (5 mg/mL, Sigma®) for 4 h of incubation, and optical density was measured at λ = 590 nm in a VariosKan® Flash (Thermo-Scientific®, Waltham, MA, USA). The half-maximal inhibitory concentration (IC50) was determined.

[2] = system: CHO-K1 cells; assay: MTT cell viability, dose-response curves 24 h; assay type: cell-based; conditions: for IC50: Cricetulus griseus, CHO-K1, 24 h, read-out: IC50 (half-maximal inhibitory concentration), CHO-K1
Protocol: as §1

[3] = system: OVCAR-3 cells; assay: MTT cell viability, dose-response curves 24 h; assay type: cell-based; conditions: Homo sapiens, read-out: IC50 (half-maximal inhibitory concentration), OVCAR-3
Protocol: as §1

[4] = system: BEAS-2B cells; assay: MTT cell viability, dose-response curves 24 h; assay type: cell-based; conditions: for IC50: Homo sapiens, BEAS-2B, read-out: IC50 (half-maximal inhibitory concentration), BEAS-2B
Protocol: as §1

[5] = system: SKOV-3 cells; assay: MTT cell viability, dose-response curves 24 h; assay type: cell-based, human; conditions: Homo sapiens, read-out: IC50 (half-maximal inhibitory concentration), SKOV-3
Protocol: as §1

[6] = system: MCF-7; set-up: method as in PMID 12781329, PMID 18790750; conditions: MCF-7, 50 μM, G1 phase; cited from earlier work
[7] = Paraclinical studies (blood chemistry, hematic biometry) and bodyweight in treated Nu/Nu mice; assay type: in vivo; conditions: 28 days treatment
Protocol: Nu/Nu mice were used to determine the antineoplastic activity of RHTR (20 female, 25 ± 5 g weight, and 6-8 weeks old). […] Mice were xenotransplanted subcutaneously on the right flank with 5 × 10^6 SKOV-3 cells. […] Four weeks post-xenotransplantation, rodents were treated daily with 200 mg/kg/i.p. of AE, AF02, or controls for another 28 days. Finally, each week, we evaluated (i) bodyweight with an electronic bascule (CS200, Ohaus®, Parsippany, NJ, USA) and (ii) tumoral lesions with a Vernier caliper (Truper®, Jilotepec, Edo. de México, M.X.).
(§2) Computed axial tomography (CAT) was performed with a Somatom Emotion™ (Siemens™) with animals in supine decubitus, full-body, and craniocaudal directions. The sequences and parameters used in the study were modifications based on the ExtrHR protocol. Ultrasonography (USG) was performed in an ultrasound system (LogiQ™ P7, General Electric-Healthcare®, Chicago, IL, USA), with real-time image, skeletal muscle preset, and Doppler application. Determination of paraclinical and histopathological studies such as hematic biometry, blood chemistry, and pathological lesions in liver, kidneys, and tumor were performed according to the protocol described by Varela-Rodríguez et al..

[8] = Morphometric analysis of liver and kidneys in treated Nu/Nu mice; assay type: in vivo
Protocol: as §2

[9] = system: SKOV-3 cells xenotransplant; assay: Antineoplastic activity in Nu/Nu mice with subcutaneous SKOV-3 xenotransplant; assay type: in vivo; set-up: key to Vascularity of tumor lesion / Fibrosis of tumor lesion: +, present; +++, abundant
Protocol: Nu/Nu mice were used to determine the antineoplastic activity of RHTR (20 female, 25 ± 5 g weight, and 6-8 weeks old). Mice were maintained in sterile conditions (25 ± 1 °C, and 12 h light/dark cycles) and ad libitum access to food (LabDiet®, Richmond, IN, USA) or water in UPEAL (CINVESTAV-IPN). The Institutional Ethics Committee approved all procedures (No. 184-16), following the Official Mexican Regulations: NOM-062-ZOO-1999 [31] and the International Guidelines (see Appendix A, NC3Rs ARRIVE Guidelines Checklist). Mice were xenotransplanted subcutaneously on the right flank with 5 × 10^6 SKOV-3 cells. The development of tumor lesions was monitored for 28 days (≈50 mm^3). Four weeks post-xenotransplantation, rodents were treated daily with 200 mg/kg/i.p. of AE, AF02, or controls for another 28 days. Finally, each week, we evaluated (i) bodyweight with an electronic bascule (CS200, Ohaus®, Parsippany, NJ, USA) and (ii) tumoral lesions with a Vernier caliper (Truper®, Jilotepec, Edo. de México, M.X.). At the end of treatments, mice were anesthetized with 0.1575 mg/250 μL 1× PBS (v/v, i.p.) of pentobarbital sodium (PiSA®, Guadalajara, Jal., M.X.) for the subsequent analyses (Figure 5).
as §2

[10] = system: KB cell; set-up: method as in PMID 4437313; conditions: Ga isolated from RHTR leaves; cited from earlier work
[11] = system: ovarian cancer tumoral lesions; set-up: method as in PMID 32276584; conditions: 50 mg/kg, peritumoral route; cited from earlier work
[12] = Caco-2, MTT, 24 h, value in brackets
[13] = OVCAR-3, MTT, 24 h, value in brackets
[14] = SK-OV-3, MTT, 24 h, value in brackets

SMILES: C[C@@H]1O[C@@H](Oc2c(-c3ccc(O)c(O)c3)oc3cc(O)cc(O)c3c2=O)[C@H](O)[C@H](O)[C@H]1O [Compound 12, quercitrin]
IC50 ([1]; Caco-2, 24 h): 179 µg/mL and 399 µM | IC50 [2]: > 200 µg/mL and > 446 µM | IC50 ([3]; OVCAR-3, 24 h): > 200 µg/mL and > 446 µM | IC50 [4]: > 200 µg/mL and > 446 µM | IC50 ([5]; SK-OV-3, 24 h): > 200 µg/mL and > 446 µM

SMILES: O=C(OC[C@H]1O[C@@H](OC(=O)c2cc(O)c(O)c(O)c2)[C@H](OC(=O)c2cc(O)c(O)c(O)c2)[C@@H](OC(=O)c2cc(O)c(O)c(O)c2)[C@@H]1OC(=O)c1cc(O)c(O)c(O)c1)c1cc(O)c(O)c(O)c1 [Compound 8, 1,2,3,4,6-pentakis-O-galloyl-β-D-glucose]
cell cycle effect [6]: cell cycle arrest

SMILES: N.N.O=C([O-])C1(C(=O)[O-])CCC1.[Pt+2] [Carboplatin, carboplatin]
PCT (plateletcrit) ([7]; 1× PBS 0.55 ± 0.30): 0.55 ± 0.29 | Creatinine ([7]; 1× PBS 0.65 ± 0.2): 0.37 ± 0.26 mg/dL | Total bilirubin ([7]; 1× PBS 0.67 ± 0.16): 0.58 ± 0.2 mg/dL | Albumin ([7]; 1× PBS 1.36 ± 0.21): 1.33 ± 0.29 g/dL | Protein ([7]; 1× PBS 4.7 ± 0.56): 5.1 ± 1.46 g/dL | Erythrocytes ([7]; 1× PBS 7.92 ± 1.93): 7.81 ± 0.88 ×10^6/mm^3 | Hemoglobin ([7]; 1× PBS 14.4 ± 2.13): 13.1 ± 1.61 g/dL | ALT (GPT) ([7]; 1× PBS 40.75 ± 14.5): 64.4 ± 6.87 U/L | Hematocrit ([7]; 1× PBS 44.52 ± 2.17): 40.57 ± 4.16% | Urea ([7]; 1× PBS 47.9 ± 7.16): 59.4 ± 9.99 mg/dL | Alkaline phosphatase ([7]; 1× PBS 71 ± 10.36): 66.6 ± 15.6 U/L | Glucose ([7]; 1× PBS 78.3 ± 16.6): 107 ± 14.8 mg/dL | Cholesterol ([7]; 1× PBS 85.5 ± 13.4): 108.6 ± 19.4 mg/dL | Triglycerides ([7]; 1× PBS 87.6 ± 12.01): 103.7 ± 12.7 mg/dL | AST (GOT) ([7]; 1× PBS 149.8 ± 27.29): 162.9 ± 8.2 U/L | Kidneys weight ([8]; 1X PBS 0.38 ± 0.042): 0.40 ± 0.01 g | Liver weight ([8]; 1X PBS 1.53 ± 0.14): 1.80 ± 0.10 g | Kidneys larger diameter ([8]; 1X PBS 9.34 ± 0.67): 11.5 ± 0.7 mm | Liver larger diameter ([8]; 1X PBS 29.65 ± 2.22): 30.5 ± 2.2 mm | Fibrosis of tumor lesion ([9]; 1× PBS +): + | Vascularity of tumor lesion ([9]; 1× PBS +++): + | Morphology of tumor lesion ([9]; 1× PBS Cystic): Solid | necrosis percentage of tumor lesion (imaging) ([9]; Figure 3A, vehicle 35.16%): 5.19% | Tumor lesion weight ([9]; end of 28 days treatment, 1× PBS 0.34 ± 0.09): 0.14 ± 0.06 g | Tumor lesion larger diameter ([9]; end of 28 days treatment, 1× PBS 14.53 ± 2.4): 3.70 ± 0.26 mm | Tumor volume ([9]; end of 28 days treatment, 1× PBS 373.3 ± 18.1): 137.3 ± 18.6 * mm^3

IC50 ([1]; Caco-2, MTT, 24 h): 100 µg/mL | IC50 [1, 12]: 543 µM | IC50 ([3]; OVCAR-3, MTT, 24 h): > 200 µg/mL | IC50 [3, 13]: > 1090 µM | IC50 ([5]; SK-OV-3, MTT, 24 h): > 200 µg/mL | IC50 [5, 14]: > 1090 µM
SMILES: COC(=O)c1cc(O)c(O)c(O)c1 [Compound 2, methyl 3,4,5-trihydroxybenzoate]
IC50 ([2]; MTT, 24 h): 130 µg/mL | IC50 ([2]; MTT, 24 h, value in brackets): 706 µM | IC50 ([4]; MTT): 200 µg/mL | IC50 ([4]; MTT, value in brackets): 1090 µM

IC50 ([1]; Caco-2, MTT, 24 h): 25 µg/mL | IC50 [1, 12]: 147 µM | IC50 ([3]; OVCAR-3, MTT, 24 h): 43 µg/mL | IC50 [3, 13]: 253 µM | IC50 ([5]; SK-OV-3, MTT, 24 h): 50 µg/mL | IC50 [5, 14]: 294 µM
SMILES: O=C(O)c1cc(O)c(O)c(O)c1 [Gallic acid, gallic acid]
IC50, KB cell viability [10]: 3.1 µg/mL (≈ 18.2 µM) | IC50 ([2]; MTT, 24 h): ~150 µg/mL | IC50 ([2]; MTT, 24 h, value in brackets): 588 µM | IC50 (half-maximal inhibitory concentration), CHO-K1 ([2]; MTT, 24 h): 100 µg/mL (≈ 588 µM) | IC50 ([4]; MTT, value in brackets): 147 µM | IC50 (half-maximal inhibitory concentration), BEAS-2B ([4]; MTT): 25 µg/mL (≈ 147 µM) | IC50 (half-maximal inhibitory concentration), BEAS-2B ([4]; MTT, listed as Ga): ~ 150 μg/mL | inhibition of tumoral lesions (of progression) [11]: 50%
